# According to patent US10189809B2, “SGC stimulators” (Ironwood Pharmaceuticals, Inc., priority 2010, dated 2019):
# Like-named read-outs stand apart in the source and are kept apart here.
# What was measured:
# [1] = biological target: T1, Human soluble guanylate cyclase enzyme (hsGC) (Homo sapiens (Human), UniProt Q02108+Q02153); assay: Purified human sGC enzyme synergy assay in the presence of 1 μM sodium nitroprusside (SNP); format: biochemical; settings: for sGC Enzyme (fold increase at 30 μM with SNP): 30 μM compound; for sGC Enzyme (fold increase at 10 μM with SNP): 10 μM compound
# Description: Human soluble guanylate cyclase enzyme (hsGC) obtained from Enzo Inc. (P/N: ALX-201-177) was used to evaluate the activity of test compounds. The assay reactions contained 0.1 M Tris (pH 8.0), 0.5 mg/mL BSA (pH 8.0), 2 mM DTT, 2 mM MgCl2, 300 μM GTP, 1 mM 3-isobutyl-1-methylxanthine (IBMX) and 5 ng human soluble guanylate cyclase enzyme. Test compounds in DMSO were then added (2 μL, 10 or 30 μM final concentration) and incubated (200 μL, 96-well plate format) at 37° C. for 30 minutes. The controls were carried out using 2 μL DMSO. After the 30 minute incubation, the reaction was stopped with the addition of 200 μL of cold methanol. The plate was then centrifuged at 3,200 rpm for 10 minutes at room temperature. Supernatants (200 μL) were collected and transferred to a new 96 well plate for analysis.
# An 8 point cGMP (Sigma-Aldrich P/N: G6129) standard curve was prepared in assay buffer ranging from 0.156-20 μM. Samples for the cGMP standard curve were then diluted with an equal volume of methanol resulting in final cGMP concentrations of 0.078-10 μM.
# The cGMP standard curve was generated using GraphPad Prism Software.
# Calculations: Specific Activity was determined by the amount of cGMP formed (nmoles) per mg of sGC per min. Enzyme “fold-change” was calculated by dividing Specific Activity for test compounds by Specific Activity of DMSO controls.
# Enzyme assays were performed as described above, but was done in the presence of 1 μM sodium nitroprusside (SNP).
# [2] = biological target: T1, Human soluble guanylate cyclase enzyme (hsGC); assay: Purified human sGC enzyme activity assay; format: biochemical; settings: for sGC Enzyme (fold increase at 30 μM) / sGC Enzyme (specific activity at 30 μM) / sGC Enzyme (fold increase at 30 μM without SNP): 30 μM compound; for sGC Enzyme (fold increase at 30 μM): without the addition of SNP; for sGC Enzyme (specific activity at 10 μM) / sGC Enzyme (fold increase at 10 μM without SNP): 10 μM compound
# Method in brief: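 Values are fold-change of sGC specific activity, nmoles cGMP per mg enzyme per min, relative to DMSO controls. Reactions: 5 ng human enzyme, 300 μM GTP, 1 mM IBMX, 2 mM MgCl2/DTT, 0.1 M Tris pH 8.0, compound 10 or 30 μM final, 37° C for 30 minutes, methanol quench. cGMP read against a 0.078-10 μM final standard curve.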
# [3] = biological target: soluble guanylate cyclase (sGC) (Homo sapiens (Human), UniProt Q02108+Q02153); assay: sGC-HEK-cGMP assay run with SNP incubation (HEK WC assay); format: cell-based
# Method in brief: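 EC50 values derive from concentration-response curves of intracellular cGMP in HEK293 cells, which express sGC endogenously. Compound and sodium nitroprusside were co-incubated 10 min at 37 °C after a 15-min 0.5 mM IBMX step, with 0.1 M HCl lysis and 1% DMSO vehicle.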
# [4] = read-out: HEK WC Assay (% Emax at 10 μM/with 10 uM SNP)
# [5] = read-out: HEK WC Assay (% Emax at 30 μM/with 10 uM SNP)
# [6] = read-out: HEK WC Assay (% Emax at 10 uM/with 10 uM SNP)
# [7] = read-out: HEK WC Assay (% Emax at 30 uM/with 10 uM SNP)
# T1 sequence (Q02153 whole entry): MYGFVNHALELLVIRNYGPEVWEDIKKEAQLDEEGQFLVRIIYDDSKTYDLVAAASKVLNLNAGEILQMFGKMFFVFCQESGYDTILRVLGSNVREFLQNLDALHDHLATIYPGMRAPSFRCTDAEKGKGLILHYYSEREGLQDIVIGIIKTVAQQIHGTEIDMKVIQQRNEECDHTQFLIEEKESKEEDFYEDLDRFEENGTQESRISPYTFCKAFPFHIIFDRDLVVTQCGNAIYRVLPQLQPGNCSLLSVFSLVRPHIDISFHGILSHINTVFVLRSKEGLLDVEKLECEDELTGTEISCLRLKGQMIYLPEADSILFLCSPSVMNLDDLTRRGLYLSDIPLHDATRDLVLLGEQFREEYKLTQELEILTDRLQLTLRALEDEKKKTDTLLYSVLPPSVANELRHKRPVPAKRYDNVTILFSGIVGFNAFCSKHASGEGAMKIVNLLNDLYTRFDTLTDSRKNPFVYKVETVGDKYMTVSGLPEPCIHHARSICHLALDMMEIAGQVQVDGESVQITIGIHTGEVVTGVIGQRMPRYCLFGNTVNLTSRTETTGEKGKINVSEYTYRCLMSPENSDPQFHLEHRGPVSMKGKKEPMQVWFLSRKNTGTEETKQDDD
# T1 sequence (Q02108 whole entry): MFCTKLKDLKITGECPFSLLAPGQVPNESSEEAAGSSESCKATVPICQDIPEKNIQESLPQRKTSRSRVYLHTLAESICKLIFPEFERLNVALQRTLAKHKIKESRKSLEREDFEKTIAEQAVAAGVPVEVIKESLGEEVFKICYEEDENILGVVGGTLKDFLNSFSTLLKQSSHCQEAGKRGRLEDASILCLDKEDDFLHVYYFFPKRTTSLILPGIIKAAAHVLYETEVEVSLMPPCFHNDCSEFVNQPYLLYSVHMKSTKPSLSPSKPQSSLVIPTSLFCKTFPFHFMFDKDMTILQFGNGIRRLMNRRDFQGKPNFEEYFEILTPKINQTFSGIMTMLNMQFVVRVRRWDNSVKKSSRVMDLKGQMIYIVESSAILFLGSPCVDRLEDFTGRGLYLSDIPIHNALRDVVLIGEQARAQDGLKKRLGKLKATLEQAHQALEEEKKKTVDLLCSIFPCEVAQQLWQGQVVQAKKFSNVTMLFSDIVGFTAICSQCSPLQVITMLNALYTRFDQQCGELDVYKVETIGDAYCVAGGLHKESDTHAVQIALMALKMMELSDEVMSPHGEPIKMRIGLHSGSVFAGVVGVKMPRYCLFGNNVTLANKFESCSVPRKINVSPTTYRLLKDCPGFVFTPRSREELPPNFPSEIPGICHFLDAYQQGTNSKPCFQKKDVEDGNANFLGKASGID
# Chain of soluble guanylate cyclase (sGC) (Q02153 whole entry): as the sequence (Q02153 whole entry) above
# Chain of soluble guanylate cyclase (sGC) (Q02108 whole entry): as the sequence (Q02108 whole entry) above
smiles,measurement,setting,value
Nc1nc(-c2cc(-c3ccon3)n(Cc3ccccc3F)n2)ncc1-c1nccs1 [Compound I-108],sGC Enzyme (fold increase at 30 μM with SNP),[1]; with the addition of SNP,B (B = 2 to <5 fold increase)
same,sGC Enzyme (fold increase at 30 μM),[2],A (A = no increase to <2 fold increase)
same,Emax at 10 µM,[3]; [4],20 to 40%
same,Emax at 30 µM,[3]; [5],20 to 40%
Cc1ccc(-c2c(Br)c(-c3ncccn3)nn2Cc2ccccc2F)cc1 [Compound I-58],sGC Enzyme (fold increase at 10 μM with SNP),[1]; with 1 μM SNP,B (B = 2 to <5 fold increase)
same,sGC Enzyme (fold increase at 30 μM with SNP),[1]; with 1 μM SNP,B (B = 2 to <5 fold increase)
same,sGC Enzyme (specific activity at 10 μM),[2],B (B = 50 to <100)
same,sGC Enzyme (fold increase at 10 μM without SNP),[2],A (A = no increase to <2 fold increase)
same,sGC Enzyme (specific activity at 30 μM),[2],B (B = 50 to <100)
same,sGC Enzyme (fold increase at 30 μM without SNP),[2],B (B = 2 to <5 fold increase)
same,Emax at 10 µM,[3]; [6],0 to 10%
same,Emax at 30 µM,[3]; [7],0 to 10%
Fc1ccccc1Cn1nc(-c2ccccn2)cc1-c1cccs1 [Compound I-35],sGC Enzyme (fold increase at 10 μM with SNP),[1]; with 1 μM SNP,B (B = 2 to <5 fold increase)
same,sGC Enzyme (fold increase at 30 μM with SNP),[1]; with 1 μM SNP,C (C = 5 to <10 fold increase)
same,sGC Enzyme (specific activity at 10 μM),[2],D (D = 200 to <500)
same,sGC Enzyme (fold increase at 10 μM without SNP),[2],B (B = 2 to <5 fold increase)
same,sGC Enzyme (specific activity at 30 μM),[2],D (D = 200 to <500)
same,sGC Enzyme (fold increase at 30 μM without SNP),[2],B (B = 2 to <5 fold increase)
same,Emax at 10 µM,[3]; [6],10 to 20%
same,Emax at 30 µM,[3]; [7],10 to 20%
"Cn1c(=O)[nH]c2nc(-c3cc(-c4ncco4)n(Cc4ccccc4F)n3)nc(N)c21 [Compound I-101, 6-amino-2-(1-(2-fluorobenzyl)-5-(oxazol-2-yl)-1H-pyrazol-3-yl)-7-methyl-7H-purin-8(9H)-one]",sGC Enzyme (fold increase at 30 μM with SNP),[1]; with the addition of SNP,D (D = 10 to <30 fold increase)
same,sGC Enzyme (fold increase at 30 μM),[2],B (B = 2 to <5 fold increase)
same,Emax at 10 µM,[3]; [4],60 to 80%
same,Emax at 30 µM,[3]; [5],20 to 40%
Fc1ccccc1Cn1nc(-c2ncccn2)cc1C1CC1 [Compound I-90],sGC Enzyme (fold increase at 30 μM with SNP),[1]; with the addition of SNP,B (B = 2 to <5 fold increase)
same,sGC Enzyme (fold increase at 30 μM),[2],A (A = no increase to <2 fold increase)
same,Emax at 10 µM,[3]; [4],0 to 10%
same,Emax at 30 µM,[3]; [5],0 to 10%
Nc1nc(-c2cc(-c3ccon3)n(Cc3ccccc3F)n2)ncc1C1CC1 [Compound I-104],sGC Enzyme (fold increase at 30 μM with SNP),[1]; with the addition of SNP,C (C = 5 to <10 fold increase)
same,sGC Enzyme (fold increase at 30 μM),[2],B (B = 2 to <5 fold increase)
same,Emax at 10 µM,[3]; [4],40 to 60%
same,Emax at 30 µM,[3]; [5],> 120%
Cc1ccc(-c2cc(-c3ncccn3)nn2Cc2ccccc2F)cc1 [Compound I-65],sGC Enzyme (fold increase at 10 μM with SNP),[1]; with 1 μM SNP,B (B = 2 to <5 fold increase)
same,sGC Enzyme (fold increase at 30 μM with SNP),[1]; with 1 μM SNP,C (C = 5 to <10 fold increase)
same,sGC Enzyme (specific activity at 10 μM),[2],B (B = 50 to <100)
same,sGC Enzyme (fold increase at 10 μM without SNP),[2],B (B = 2 to <5 fold increase)
same,sGC Enzyme (specific activity at 30 μM),[2],C (C = 100 to <200)
same,sGC Enzyme (fold increase at 30 μM without SNP),[2],B (B = 2 to <5 fold increase)
same,Emax at 10 µM,[3]; [6],0 to 10%
same,Emax at 30 µM,[3]; [7],0 to 10%
Nc1nc(-c2cc(-c3ccon3)n(Cc3ccccc3F)n2)ncc1-c1ccccc1 [Compound I-122],sGC Enzyme (fold increase at 30 μM with SNP),[1]; with the addition of SNP,D (D = 10 to <30 fold increase)
same,sGC Enzyme (fold increase at 30 μM),[2],C (C = 5 to <10 fold increase)
same,Emax at 10 µM,[3]; [4],20 to 40%
same,Emax at 30 µM,[3]; [5],60 to 80%
Fc1ccccc1Cn1nc(-c2ncccn2)cc1-c1ccc(Cl)s1 [Compound I-91],sGC Enzyme (fold increase at 30 μM with SNP),[1]; with the addition of SNP,C (C = 5 to <10 fold increase)
same,sGC Enzyme (fold increase at 30 μM),[2],B (B = 2 to <5 fold increase)
same,Emax at 10 µM,[3]; [4],0 to 10%
same,Emax at 30 µM,[3]; [5],10 to 20%
Cc1cc(-c2ccccn2)nn1Cc1ccccc1F [Compound I-55],sGC Enzyme (fold increase at 10 μM with SNP),[1]; with 1 μM SNP,B (B = 2 to <5 fold increase)
same,sGC Enzyme (fold increase at 30 μM with SNP),[1]; with 1 μM SNP,B (B = 2 to <5 fold increase)
same,sGC Enzyme (fold increase at 10 μM without SNP),[2],A (A = no increase to <2 fold increase)
same,sGC Enzyme (fold increase at 30 μM without SNP),[2],B (B = 2 to <5 fold increase)
same,Emax at 10 µM,[3]; [6],10 to 20%
same,Emax at 30 µM,[3]; [7],20 to 40%
Cc1cccc(-c2cc(-c3ccccn3)nn2Cc2ccccc2F)c1 [Compound I-22],sGC Enzyme (fold increase at 10 μM with SNP),[1]; with 1 μM SNP,A (A = no increase to <2 fold increase)
same,sGC Enzyme (fold increase at 30 μM with SNP),[1]; with 1 μM SNP,A (A = no increase to <2 fold increase)
same,sGC Enzyme (specific activity at 10 μM),[2],C (C = 100 to <200)
same,sGC Enzyme (fold increase at 10 μM without SNP),[2],A (A = no increase to <2 fold increase)
same,sGC Enzyme (specific activity at 30 μM),[2],C (C = 100 to <200)
same,sGC Enzyme (fold increase at 30 μM without SNP),[2],B (B = 2 to <5 fold increase)
same,Emax at 10 µM,[3]; [6],0 to 10%
same,Emax at 30 µM,[3]; [7],0 to 10%
Cc1ccc(-c2cc(-c3ccccn3)n(Cc3ccccc3F)n2)nc1 [Compound I-57],sGC Enzyme (fold increase at 10 μM with SNP),[1]; with 1 μM SNP,A (A = no increase to <2 fold increase)
same,sGC Enzyme (fold increase at 30 μM with SNP),[1]; with 1 μM SNP,B (B = 2 to <5 fold increase)
same,sGC Enzyme (specific activity at 10 μM),[2],B (B = 50 to <100)
same,sGC Enzyme (fold increase at 10 μM without SNP),[2],A (A = no increase to <2 fold increase)
same,sGC Enzyme (specific activity at 30 μM),[2],B (B = 50 to <100)
same,sGC Enzyme (fold increase at 30 μM without SNP),[2],A (A = no increase to <2 fold increase)
same,Emax at 10 µM,[3]; [6],0 to 10%
same,Emax at 30 µM,[3]; [7],0 to 10%
Nc1nc(-c2cc(-c3ccon3)n(Cc3ccccc3F)n2)ncc1C(F)(F)F [Compound I-113],sGC Enzyme (fold increase at 30 μM with SNP),[1]; with the addition of SNP,C (C = 5 to <10 fold increase)
same,sGC Enzyme (fold increase at 30 μM),[2],A (A = no increase to <2 fold increase)
same,Emax at 10 µM,[3]; [4],20 to 40%
same,Emax at 30 µM,[3]; [5],40 to 60%
Cc1ccc(-c2c(Br)c(-c3ccccn3)nn2Cc2ccccc2F)cc1 [Compound I-67],sGC Enzyme (fold increase at 10 μM with SNP),[1]; with 1 μM SNP,A (A = no increase to <2 fold increase)
same,sGC Enzyme (fold increase at 30 μM with SNP),[1]; with 1 μM SNP,A (A = no increase to <2 fold increase)
same,sGC Enzyme (specific activity at 10 μM),[2],C (C = 100 to <200)
same,sGC Enzyme (fold increase at 10 μM without SNP),[2],A (A = no increase to <2 fold increase)
same,sGC Enzyme (specific activity at 30 μM),[2],D (D = 200 to <500)
same,sGC Enzyme (fold increase at 30 μM without SNP),[2],A (A = no increase to <2 fold increase)
same,Emax at 10 µM,[3]; [6],0 to 10%
same,Emax at 30 µM,[3]; [7],0 to 10%
Nc1nc(-c2cc(-c3ccon3)n(Cc3ccccc3F)n2)ncc1N1CCCC1 [Compound I-129],sGC Enzyme (fold increase at 30 μM with SNP),[1]; with the addition of SNP,D (D = 10 to <30 fold increase)
same,sGC Enzyme (fold increase at 30 μM),[2],B (B = 2 to <5 fold increase)
COc1ccccc1-c1cc(-c2ccccn2)nn1Cc1ccccc1F [Compound I-36],sGC Enzyme (fold increase at 10 μM with SNP),[1]; with 1 μM SNP,A (A = no increase to <2 fold increase)
same,sGC Enzyme (fold increase at 30 μM with SNP),[1]; with 1 μM SNP,A (A = no increase to <2 fold increase)
same,sGC Enzyme (specific activity at 10 μM),[2],C (C = 100 to <200)
same,sGC Enzyme (fold increase at 10 μM without SNP),[2],A (A = no increase to <2 fold increase)
same,sGC Enzyme (specific activity at 30 μM),[2],C (C = 100 to <200)
same,sGC Enzyme (fold increase at 30 μM without SNP),[2],A (A = no increase to <2 fold increase)
Nc1nc(-c2cc(-c3ccon3)n(Cc3ccccc3F)n2)ncc1N1CCOCC1 [Compound I-139],sGC Enzyme (fold increase at 30 μM with SNP),[1]; with the addition of SNP,C (C = 5 to <10 fold increase)
same,sGC Enzyme (fold increase at 30 μM),[2],C (C = 5 to <10 fold increase)
Nc1nc(-c2cc(-c3ccon3)n(Cc3ccccc3F)n2)ncc1-c1ccsc1 [Compound I-121],sGC Enzyme (fold increase at 30 μM with SNP),[1]; with the addition of SNP,D (D = 10 to <30 fold increase)
same,sGC Enzyme (fold increase at 30 μM),[2],C (C = 5 to <10 fold increase)
